Consider two molecules from US20130095151A1, “BROAD SPECTRUM SUNSCREEN COMPOSITION COMPRISING 2 HYDROXY SULFOBETAINE OF CINNAMIDOALKYL AMINE” (GALAXY SURFACTANTS LTD., priority 2010, published 2013).

For series [1] the following is noted: free acid, not neutralised; cited from earlier work.
Series [2] can be described thus: photostability: remaining content of AVB after exposing the formulas to sunlight, UV spectrophotometer vs unexposed control. In kind it is physicochemical. The following applies: in sunscreen creams with AVB/OCN. The procedure:
Furthermore, the formulas I to 4 above where tested for photostability by exposing the formulas to sunlight for three hours (10 am to 1 pm, 2 Jun. 2011, Navi Mumbai, INDIA). The remaining content of AVB was measured using UV Spectrophotometer and compared to unexposed control.

As to `O=S(=O)(O)c1ccc2[nH]c(-c3ccccc3)nc2c1` [Phenylbenzimidazole Sulfonic Acid], the solubility in water in series [1] is recorded as 0.25 % w/w.
`COc1ccc(/C=C/C(=O)NCCC[N+](C)(C)CC(O)CS(=O)(=O)[O-])cc1` (centres unmarked) [SunBeat, 3-(N-p-Methoxycinnamidopropyl, N,N-Dimethyl Ammonium)-2-Hydroxypropane-1-Sulphonate]: in series [2], the “photostability compared to PBSA and OMC” value is on record as “enhanced photostability”.
